Where two headings read alike, the source gives them in different places. One block for each molecule: values may come before it.
What was measured:
Test in all cases: Ambit kinase profiling, competition binding
GSK3B = target: T1, GSK3B (Homo sapiens, UniProt P49841)
T1 construct: purchased Ambit Biosciences (KINOMEscan)
Procedure: (§1) Also included in the kinase profile are four isoforms of PKC (δ, ε, η, θ) and eight isoforms of CAMKs (CAMKIα, δ, γ; CAMKIIα, β, δ, γ; CAMK4).
(§2) The global kinase profiling experiment was performed by Ambit Biosciences.

EGFR = target: T2, EGFR (Homo sapiens, UniProt P00533); details: for % Competition: 10 µM
T2 construct: purchased Ambit Biosciences (KINOMEscan)
T2 sequence (P00533 25-1210): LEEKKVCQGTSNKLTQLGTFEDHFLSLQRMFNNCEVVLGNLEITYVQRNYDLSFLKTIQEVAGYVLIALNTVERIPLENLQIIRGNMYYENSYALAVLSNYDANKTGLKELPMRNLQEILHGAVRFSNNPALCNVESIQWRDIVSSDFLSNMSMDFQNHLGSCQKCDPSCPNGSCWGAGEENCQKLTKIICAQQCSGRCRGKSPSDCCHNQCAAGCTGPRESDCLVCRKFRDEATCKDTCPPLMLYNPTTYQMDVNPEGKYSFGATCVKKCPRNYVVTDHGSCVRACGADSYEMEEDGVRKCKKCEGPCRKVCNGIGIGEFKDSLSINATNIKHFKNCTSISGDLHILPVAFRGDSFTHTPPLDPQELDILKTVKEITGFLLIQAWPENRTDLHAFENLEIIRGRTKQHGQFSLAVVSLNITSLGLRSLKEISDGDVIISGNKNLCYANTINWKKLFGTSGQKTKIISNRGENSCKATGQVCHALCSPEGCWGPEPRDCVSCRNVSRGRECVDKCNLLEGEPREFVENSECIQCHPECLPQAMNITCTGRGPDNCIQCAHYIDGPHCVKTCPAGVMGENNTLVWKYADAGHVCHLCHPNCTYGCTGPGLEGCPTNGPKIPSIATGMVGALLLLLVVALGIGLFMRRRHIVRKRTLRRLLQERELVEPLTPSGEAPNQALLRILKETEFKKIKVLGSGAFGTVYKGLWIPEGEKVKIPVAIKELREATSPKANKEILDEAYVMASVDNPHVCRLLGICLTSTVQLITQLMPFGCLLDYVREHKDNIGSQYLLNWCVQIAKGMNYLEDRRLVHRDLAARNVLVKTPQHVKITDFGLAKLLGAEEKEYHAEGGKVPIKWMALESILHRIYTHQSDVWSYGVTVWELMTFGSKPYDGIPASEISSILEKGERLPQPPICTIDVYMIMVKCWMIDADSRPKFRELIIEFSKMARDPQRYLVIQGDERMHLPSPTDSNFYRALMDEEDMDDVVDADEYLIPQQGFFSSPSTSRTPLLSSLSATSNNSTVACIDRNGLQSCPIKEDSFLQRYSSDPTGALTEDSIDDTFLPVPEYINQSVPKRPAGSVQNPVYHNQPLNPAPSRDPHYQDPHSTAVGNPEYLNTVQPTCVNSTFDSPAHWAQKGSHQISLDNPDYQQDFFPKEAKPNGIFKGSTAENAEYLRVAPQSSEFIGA
Procedure: as §1, §2

FRK = target: T3, FRK (Homo sapiens, UniProt P42685)
T3 construct: purchased Ambit Biosciences (KINOMEscan)
T3 sequence (P42685 whole entry): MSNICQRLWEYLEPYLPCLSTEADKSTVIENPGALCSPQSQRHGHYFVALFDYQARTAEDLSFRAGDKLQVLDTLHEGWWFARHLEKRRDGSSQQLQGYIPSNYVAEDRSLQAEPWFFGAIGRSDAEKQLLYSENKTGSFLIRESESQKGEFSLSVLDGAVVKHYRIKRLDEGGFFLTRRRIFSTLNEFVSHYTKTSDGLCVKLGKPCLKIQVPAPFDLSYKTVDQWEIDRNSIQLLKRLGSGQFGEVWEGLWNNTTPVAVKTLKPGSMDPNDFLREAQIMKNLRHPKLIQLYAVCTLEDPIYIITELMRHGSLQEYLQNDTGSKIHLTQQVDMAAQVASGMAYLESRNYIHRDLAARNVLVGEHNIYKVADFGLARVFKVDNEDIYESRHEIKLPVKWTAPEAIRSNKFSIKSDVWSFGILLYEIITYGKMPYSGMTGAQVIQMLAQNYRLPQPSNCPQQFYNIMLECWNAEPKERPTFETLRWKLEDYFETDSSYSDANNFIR
Procedure: as §1, §2

CAMKIδ = target: T4, CAMKIδ (Homo sapiens, UniProt Q8IU85); details: for competition: CAMKIδ, 10 µM
T4 construct: purchased Ambit Biosciences (KINOMEscan)
T4 sequence (Q8IU85 whole entry): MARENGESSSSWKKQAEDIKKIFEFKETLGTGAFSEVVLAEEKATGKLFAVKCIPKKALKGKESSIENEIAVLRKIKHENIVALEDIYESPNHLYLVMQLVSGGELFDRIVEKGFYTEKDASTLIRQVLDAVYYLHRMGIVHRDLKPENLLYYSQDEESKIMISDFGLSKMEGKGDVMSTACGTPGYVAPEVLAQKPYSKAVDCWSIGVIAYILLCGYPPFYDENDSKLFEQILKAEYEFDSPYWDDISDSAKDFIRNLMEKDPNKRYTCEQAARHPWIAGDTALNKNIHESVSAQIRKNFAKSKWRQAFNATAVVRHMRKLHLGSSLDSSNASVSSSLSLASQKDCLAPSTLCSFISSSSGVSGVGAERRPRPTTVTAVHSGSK
Procedure: as §1, §2

CDK5 = target: T5, CDK5 (Homo sapiens, UniProt Q00535)
T5 construct: purchased Ambit Biosciences (KINOMEscan)
Procedure: as §1, §2

SRC = target: T6, SRC (Homo sapiens, UniProt P12931)
T6 construct: purchased Ambit Biosciences (KINOMEscan)
T6 sequence (P12931 whole entry): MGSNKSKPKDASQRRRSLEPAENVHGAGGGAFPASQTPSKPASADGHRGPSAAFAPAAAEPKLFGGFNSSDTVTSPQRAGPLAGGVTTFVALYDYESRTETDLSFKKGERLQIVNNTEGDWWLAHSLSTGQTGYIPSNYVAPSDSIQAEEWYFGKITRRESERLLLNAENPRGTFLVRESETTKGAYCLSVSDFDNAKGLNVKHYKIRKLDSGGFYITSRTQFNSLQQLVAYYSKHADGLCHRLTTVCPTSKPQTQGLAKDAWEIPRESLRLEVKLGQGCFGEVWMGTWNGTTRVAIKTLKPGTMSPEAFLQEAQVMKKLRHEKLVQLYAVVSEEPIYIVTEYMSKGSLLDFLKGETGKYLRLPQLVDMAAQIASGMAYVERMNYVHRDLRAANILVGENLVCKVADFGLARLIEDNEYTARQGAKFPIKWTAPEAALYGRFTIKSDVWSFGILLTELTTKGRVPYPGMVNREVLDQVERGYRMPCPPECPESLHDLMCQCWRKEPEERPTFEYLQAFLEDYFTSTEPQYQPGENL
Procedure: as §1, §2

CAMKIγ = target: T7, CAMKIγ (Homo sapiens, UniProt Q96NX5); details: for competition: CAMKIγ, 10 µM
T7 construct: purchased Ambit Biosciences (KINOMEscan)
T7 sequence (Q96NX5 whole entry): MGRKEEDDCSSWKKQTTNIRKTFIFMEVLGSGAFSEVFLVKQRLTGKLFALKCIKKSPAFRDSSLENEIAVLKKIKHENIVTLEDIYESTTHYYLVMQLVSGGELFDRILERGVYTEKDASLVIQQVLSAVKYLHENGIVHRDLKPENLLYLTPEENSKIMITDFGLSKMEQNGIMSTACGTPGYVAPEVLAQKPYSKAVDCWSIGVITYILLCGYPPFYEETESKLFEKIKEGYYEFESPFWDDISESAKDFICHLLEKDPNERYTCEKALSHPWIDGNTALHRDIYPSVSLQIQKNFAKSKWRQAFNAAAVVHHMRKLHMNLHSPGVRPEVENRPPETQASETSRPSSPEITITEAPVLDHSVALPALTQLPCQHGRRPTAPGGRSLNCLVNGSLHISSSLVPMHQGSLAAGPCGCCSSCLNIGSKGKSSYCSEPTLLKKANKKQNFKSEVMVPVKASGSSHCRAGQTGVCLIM
Procedure: as §1, §2

CDK7 = target: T8, CDK7 (Homo sapiens, UniProt P50613)
T8 construct: purchased Ambit Biosciences (KINOMEscan)
T8 sequence (P50613 whole entry): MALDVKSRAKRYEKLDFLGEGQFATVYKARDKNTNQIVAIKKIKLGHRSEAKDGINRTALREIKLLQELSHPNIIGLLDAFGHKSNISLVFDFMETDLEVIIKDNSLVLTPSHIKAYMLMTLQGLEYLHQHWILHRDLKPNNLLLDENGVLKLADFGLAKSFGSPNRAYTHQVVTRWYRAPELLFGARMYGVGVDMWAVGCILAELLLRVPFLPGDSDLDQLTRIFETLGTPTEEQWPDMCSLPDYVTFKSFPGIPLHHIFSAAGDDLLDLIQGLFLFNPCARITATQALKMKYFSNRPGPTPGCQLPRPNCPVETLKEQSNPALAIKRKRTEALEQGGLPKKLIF
Procedure: as §1, §2

ERK1 = target: T9, ERK1 (Homo sapiens, UniProt P27361)
T9 construct: purchased Ambit Biosciences (KINOMEscan)
T9 sequence (P27361 whole entry): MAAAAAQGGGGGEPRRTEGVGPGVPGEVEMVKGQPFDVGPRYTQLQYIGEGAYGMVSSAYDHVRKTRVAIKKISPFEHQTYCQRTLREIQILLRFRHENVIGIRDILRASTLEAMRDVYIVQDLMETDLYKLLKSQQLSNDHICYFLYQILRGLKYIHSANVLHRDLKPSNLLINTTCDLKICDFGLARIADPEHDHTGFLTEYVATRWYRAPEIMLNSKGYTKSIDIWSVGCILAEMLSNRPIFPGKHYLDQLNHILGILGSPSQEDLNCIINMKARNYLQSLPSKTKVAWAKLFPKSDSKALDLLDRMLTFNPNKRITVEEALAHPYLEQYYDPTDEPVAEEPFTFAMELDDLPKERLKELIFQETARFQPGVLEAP
Procedure: as §1, §2

ERBB4 = target: T10, ERBB4 (Homo sapiens, UniProt Q15303)
T10 construct: purchased Ambit Biosciences (KINOMEscan)
Procedure: as §1, §2

ROCK2 = target: T11, ROCK2 (Homo sapiens, UniProt O75116)
T11 construct: purchased Ambit Biosciences (KINOMEscan)
Procedure: as §1, §2

ADCK4 = target: T12, ADCK4 (Homo sapiens, UniProt Q96D53)
T12 construct: purchased Ambit Biosciences (KINOMEscan)
T12 sequence (Q96D53 1-544): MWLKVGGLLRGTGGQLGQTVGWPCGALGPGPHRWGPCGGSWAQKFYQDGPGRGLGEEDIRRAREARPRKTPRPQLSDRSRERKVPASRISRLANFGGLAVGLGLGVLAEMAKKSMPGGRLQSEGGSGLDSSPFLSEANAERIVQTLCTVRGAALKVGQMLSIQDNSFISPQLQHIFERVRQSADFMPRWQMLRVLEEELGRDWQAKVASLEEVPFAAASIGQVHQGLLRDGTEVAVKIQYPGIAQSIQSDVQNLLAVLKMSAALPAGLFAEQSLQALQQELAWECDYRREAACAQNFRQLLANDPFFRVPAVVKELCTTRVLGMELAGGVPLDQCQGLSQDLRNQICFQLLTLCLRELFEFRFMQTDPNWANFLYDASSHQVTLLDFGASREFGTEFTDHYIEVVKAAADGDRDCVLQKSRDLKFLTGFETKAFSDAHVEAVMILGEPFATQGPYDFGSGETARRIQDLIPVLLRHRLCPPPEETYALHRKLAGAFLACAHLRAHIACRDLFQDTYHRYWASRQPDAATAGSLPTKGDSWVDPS
Procedure: as §1, §2

ACVR2B = target: T13, ACVR2B (Homo sapiens, UniProt Q13705); details: for % Competition: 10 µM
T13 construct: purchased Ambit Biosciences (KINOMEscan)
T13 sequence (Q13705 19-512): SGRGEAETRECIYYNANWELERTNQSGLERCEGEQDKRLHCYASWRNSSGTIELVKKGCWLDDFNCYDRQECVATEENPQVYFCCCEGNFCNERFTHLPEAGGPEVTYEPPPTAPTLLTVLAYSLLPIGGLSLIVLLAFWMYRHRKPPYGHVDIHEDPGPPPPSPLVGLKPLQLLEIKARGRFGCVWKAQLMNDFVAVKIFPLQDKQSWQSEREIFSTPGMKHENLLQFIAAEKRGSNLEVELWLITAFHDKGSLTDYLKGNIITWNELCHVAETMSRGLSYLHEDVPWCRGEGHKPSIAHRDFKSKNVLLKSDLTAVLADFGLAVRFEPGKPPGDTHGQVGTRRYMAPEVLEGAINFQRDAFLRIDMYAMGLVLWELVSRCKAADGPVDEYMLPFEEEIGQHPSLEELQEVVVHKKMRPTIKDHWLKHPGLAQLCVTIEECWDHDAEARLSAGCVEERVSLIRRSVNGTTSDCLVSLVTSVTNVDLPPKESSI
Procedure: as §1, §2

LATS1 = target: T14, LATS1 (Homo sapiens, UniProt O95835)
T14 construct: purchased Ambit Biosciences (KINOMEscan)
T14 sequence (O95835 1-1130): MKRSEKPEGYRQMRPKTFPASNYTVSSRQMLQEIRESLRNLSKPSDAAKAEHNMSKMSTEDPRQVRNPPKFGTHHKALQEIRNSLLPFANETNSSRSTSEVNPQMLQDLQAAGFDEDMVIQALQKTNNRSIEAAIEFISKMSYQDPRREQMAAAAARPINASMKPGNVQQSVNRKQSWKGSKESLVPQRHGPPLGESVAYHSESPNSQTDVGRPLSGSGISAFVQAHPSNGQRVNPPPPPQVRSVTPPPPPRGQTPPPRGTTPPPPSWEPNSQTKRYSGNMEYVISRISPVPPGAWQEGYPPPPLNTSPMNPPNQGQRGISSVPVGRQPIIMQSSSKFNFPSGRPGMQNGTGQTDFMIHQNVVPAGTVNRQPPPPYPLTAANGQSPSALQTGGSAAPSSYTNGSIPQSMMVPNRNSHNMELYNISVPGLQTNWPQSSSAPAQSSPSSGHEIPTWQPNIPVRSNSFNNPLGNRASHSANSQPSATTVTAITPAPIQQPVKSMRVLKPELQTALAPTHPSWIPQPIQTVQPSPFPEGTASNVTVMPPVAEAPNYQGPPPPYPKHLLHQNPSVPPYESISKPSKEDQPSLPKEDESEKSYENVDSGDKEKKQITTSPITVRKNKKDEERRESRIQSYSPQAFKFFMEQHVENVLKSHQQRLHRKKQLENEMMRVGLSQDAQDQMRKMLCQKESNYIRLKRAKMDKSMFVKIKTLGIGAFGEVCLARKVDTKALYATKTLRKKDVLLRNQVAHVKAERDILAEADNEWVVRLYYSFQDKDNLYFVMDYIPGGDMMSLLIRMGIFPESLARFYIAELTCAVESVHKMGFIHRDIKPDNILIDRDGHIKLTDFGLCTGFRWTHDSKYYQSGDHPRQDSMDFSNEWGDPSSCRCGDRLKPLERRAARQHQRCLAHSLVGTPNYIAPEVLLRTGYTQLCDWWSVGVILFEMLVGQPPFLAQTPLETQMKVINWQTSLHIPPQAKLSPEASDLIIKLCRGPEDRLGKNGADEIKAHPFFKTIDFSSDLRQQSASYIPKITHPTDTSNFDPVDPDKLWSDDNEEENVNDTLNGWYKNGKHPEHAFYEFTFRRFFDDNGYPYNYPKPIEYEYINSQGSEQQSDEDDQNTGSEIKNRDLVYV
Procedure: as §1, §2

T1 sequence (P49841 whole entry): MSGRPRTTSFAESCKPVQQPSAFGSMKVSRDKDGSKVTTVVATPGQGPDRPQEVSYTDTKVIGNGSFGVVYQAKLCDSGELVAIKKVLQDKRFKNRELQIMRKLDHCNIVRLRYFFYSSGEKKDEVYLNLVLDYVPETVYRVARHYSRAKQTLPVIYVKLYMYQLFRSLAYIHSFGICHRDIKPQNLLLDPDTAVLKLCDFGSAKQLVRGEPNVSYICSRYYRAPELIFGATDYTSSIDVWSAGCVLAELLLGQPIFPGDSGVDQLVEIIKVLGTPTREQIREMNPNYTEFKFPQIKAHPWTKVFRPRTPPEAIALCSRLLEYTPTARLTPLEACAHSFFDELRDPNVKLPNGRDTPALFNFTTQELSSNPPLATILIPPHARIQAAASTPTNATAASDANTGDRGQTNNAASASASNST

inhibition at 10 µM (GSK3B; GSK3B, 10 µM, read-out: % Competition): 96% | % Competition (EGFR): 95% | inhibition at 10 µM (FRK; FRK, 10 µM, read-out: % Competition): 85% | competition (CAMKIδ): < 50% | inhibition at 10 µM (CDK5; CDK5, 10 µM, read-out: % Competition): 92% | inhibition at 10 µM (SRC; SRC, 10 µM, read-out: % Competition): 87% | competition (CAMKIγ): < 50% | inhibition at 10 µM (CDK7; CDK7, 10 µM, read-out: % Competition): 100% | inhibition at 10 µM (ERK1; ERK1, 10 µM, read-out: % Competition): 80% | inhibition at 10 µM (ERBB4; ERBB4, 10 µM, read-out: % Competition): 80% | inhibition at 10 µM (ROCK2; ROCK2, 10 µM, read-out: % Competition): 89% | inhibition at 10 µM (ADCK4; ADCK4, 10 µM, read-out: % Competition): 94% | % Competition (ACVR2B): 92% | inhibition at 10 µM (LATS1; LATS1, 10 µM, read-out: % Competition): 68%
Structure (SMILES): Fc1ccc(-c2c(-c3ccncc3)[nH]c3nccnc23)cc1 [Compound 122]

Structure (SMILES): CC(O)CNc1cc(-c2[nH]c3cccnc3c2-c2ccc(F)cc2)ccn1 (stereo not drawn) [Compound 140]
inhibition at 10 µM (GSK3B; read-out: % Competition): < 50% | % Competition (EGFR): 76% | inhibition at 10 µM (FRK; read-out: % Competition): < 50% | competition (CAMKIδ): < 50% | inhibition at 10 µM (CDK5; read-out: % Competition): < 50% | inhibition at 10 µM (SRC; read-out: % Competition): < 50% | competition (CAMKIγ): < 50% | inhibition at 10 µM (CDK7; read-out: % Competition): < 50% | inhibition at 10 µM (ERK1; read-out: % Competition): < 50% | inhibition at 10 µM (ERBB4; read-out: % Competition): < 50% | inhibition at 10 µM (ROCK2; read-out: % Competition): < 50% | inhibition at 10 µM (ADCK4; read-out: % Competition): 98% | % Competition (ACVR2B): <50% | inhibition at 10 µM (LATS1; read-out: % Competition): < 50%

inhibition at 10 µM (GSK3B; GSK3B, compound concentration 10 uM, read-out: Percent Competition): 96% | Percent Competition (EGFR; compound concentration 10 uM): 95% | inhibition at 10 µM (FRK; FRK, compound concentration 10 uM, read-out: Percent Competition): 85% | inhibition at 10 µM (CAMKIδ; CAMK1D, compound concentration 10 uM, read-out: Percent Competition): < 50% | inhibition at 10 µM (CDK5; CDK5, compound concentration 10 uM, read-out: Percent Competition): 92% | inhibition at 10 µM (SRC; SRC, compound concentration 10 uM, read-out: Percent Competition): 87% | inhibition at 10 µM (CAMKIγ; CAMK1G, compound concentration 10 uM, read-out: Percent Competition): < 50% | inhibition at 10 µM (CDK7; CDK7, compound concentration 10 uM, read-out: Percent Competition): 100% | inhibition at 10 µM (ERK1; ERK1, compound concentration 10 uM, read-out: Percent Competition): 80% | inhibition at 10 µM (ERBB4; ERBB4, compound concentration 10 uM, read-out: Percent Competition): 80% | inhibition at 10 µM (ROCK2; ROCK2, compound concentration 10 uM, read-out: Percent Competition): 89% | inhibition at 10 µM (ADCK4; ADCK4, compound concentration 10 uM, read-out: Percent Competition): 94% | Percent Competition (ACVR2B; compound concentration 10 uM): 92% | inhibition at 10 µM (LATS1; LATS1, compound concentration 10 uM, read-out: Percent Competition): 68%
Structure (SMILES): Fc1ccc(-c2c(-c3ccncc3)[nH]c3nccnc23)cc1 [RO1155697-000-005]

From publication PMC3445516 (PLoS ONE, 2012)
